Where two headings read alike, the source gives them in different places.

Consider three compounds from article PMC12350525, “Investigation of the inhibitory effects of the telomere-targeted compounds on glutathione S-transferase P1” (Naunyn-Schmiedeberg's Archives of Pharmacology, 2025).

One assay deals with GSTP1. The settings on record: covalent binding to tyrosine residues on GSTP1; ref Louie et al. 2016; cited from earlier work.
The target of another assay is T1, recombinant human GSTP1 (Homo sapiens, UniProt P09211).
T1 construct: made in house; host or cells: E. coli XL-1 Blue
As to the kind of experiment: GSTP1 enzyme inhibition assay (GSH-CDNB conjugation, spectrophotometric). The class given is biochemical. The procedure: Glutathione S-transferase P1 (GSTP1) plays a significant role in cancer progression and chemotherapy resistance, with its overexpression diminishing chemotherapeutic efficacy across various tumor types. […] Enzyme inhibition assays with recombinant human GSTP1, kinetic analysis, molecular docking, and molecular dynamic simulations were employed. Enzymatic assays were performed in 0.1 M phosphate buffer (pH 6.5) at 30 °C, containing 1 mM EDTA, 1 mM GSH, and 1 mM CDNB. […] Graphical abstract
The human GST P1-1 gene from a K562 erythroleukemia cDNA library (GSTP1*A allele) was cloned into the pKXHP1 plasmid. This plasmid was transformed into E. coli XL-1 Blue cells via heat shock, grown on agar plates, and a single colony was cultured overnight at 37 °C in 2YT medium. […]
The enzyme activity of GSTP1 was measured using a spectrophotometric assay based on the conjugation of glutathione (GSH) to 1-chloro-2,4-dinitrobenzene (CDNB). […] The progress of the reaction was monitored by measuring the absorbance change at 340 nm, indicating the formation of the GSH-CDNB conjugate. Absorbance readings were recorded over 5 min using a SpectraMax M2 microplate reader. Percentage inhibition at each concentration was calculated, and IC₅₀ values were determined using GraphPad Prism 8.4. […]

The target of the next assay is T2, GSTP1-1 (Homo sapiens, UniProt P09211).
T2 construct: made in house; host or cells: E. coli XL-1 Blue
Briefly: Kinetic inhibition studies with GSTP1 (Lineweaver-Burk, varied GSH or CDNB). The format is biochemical. The protocol: To assess the inhibition type and calculate the inhibition constant (Ki) values for the compounds, kinetic inhibition studies were performed with GSTP1.
By varying the concentration of one substrate while keeping the other at near-saturation, we assessed how each inhibitor interacted with GSTP1 under various substrate conditions. Lineweaver-Burk plots were used to analyze these interactions, allowing for the determination of the inhibition type (e.g., competitive, non-competitive, or mixed) and the Ki values for each compound. These kinetic parameters were calculated using GraphPad Prism, providing a comprehensive understanding of how the inhibitors influence GSTP1 enzymatic activity.
These plots were generated by varying the concentrations of substrates GSH and CDNB with different inhibitor concentrations.

Setting [1] is: CDNB as varied substrate, GSH near-saturating, read-out: Ki CDNB.
[2] abbreviates: GSH as varied substrate, CDNB near-saturating, read-out: Ki GSH.

T2 sequence (P09211 whole entry): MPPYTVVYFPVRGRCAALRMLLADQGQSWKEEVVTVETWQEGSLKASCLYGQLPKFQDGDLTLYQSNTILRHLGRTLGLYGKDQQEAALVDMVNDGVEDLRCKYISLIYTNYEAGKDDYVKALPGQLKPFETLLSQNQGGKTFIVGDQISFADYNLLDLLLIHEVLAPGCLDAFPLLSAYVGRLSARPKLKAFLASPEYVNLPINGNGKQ
T1 sequence (P09211 whole entry): as above

The IC50 is the concentration needed to halve the response being measured. With `C#CCCCN(c1nc(Cl)nc(Cl)n1)[C@H](CC(C)C)C(=O)OC` [LAS17], in the assay with GSTP1, the IC50 is 500 nM.
As a reminder, the Ki is the dissociation constant of the complex between target and ligand, obtained from inhibition or displacement. As for `Nc1nc(SSc2nc(N)nc3c2ncn3C2CC(O)C(CO)O2)c2ncn(C3CC(O)C(CO)O3)c2n1` (stereo not drawn) [6-thio-2′-dG-Dimer], the IC50 on recombinant human GSTP1 (as restated in the discussion) stood at 339 nM. Also, at GSTP1-1 (CDNB as varied substrate), the “Type of inhibition CDNB” value is listed as “Competitive”. Moreover, the Ki on GSTP1-1 (setting [1]) was 723 nM; on GSTP1-1 (setting [2]), 972 nM. Also, the “Type of inhibition GSH” value is recorded as “Mixed” on GSTP1-1 (GSH as varied substrate) and “mixed-type” on GSTP1-1 (GSH as varied substrate, listed as dimer form).
Turning to `Nc1nc2c(ncn2[C@H]2C[C@H](O)[C@@H](CO)O2)c(=S)[nH]1` [Compound 6-thio-dG, 6-thio-2′-deoxyguanosine], the half-inhibitory concentration (IC50) at recombinant human GSTP1 (0.1 M phosphate buffer pH 6.5, 30 °C, 1 mM EDTA, 1 mM GSH, 1 mM CDNB, 2.5% DMSO) is 15100 nM. Further, on GSTP1-1 (CDNB as varied substrate), the “Type of inhibition CDNB” value is listed as “mixed-type”. Also, the inhibition constant (Ki) is 11400 nM at GSTP1-1 (setting [1]) and 12300 nM at GSTP1-1 (setting [2]). Further, on GSTP1-1 (GSH as varied substrate), the “Type of inhibition GSH” value is “Noncompetitive”.
